Test results from US7119077B1, “Multimeric forms of members of the steroid/thyroid superfamily of receptors with the ultraspiracle receptor” (The Salk Institute for Biological Studies, priority 1990, dated 2006).

Tests used:
[1] = biological target: T1, GEcR/usp (UniProt P04150+P34021, C431Y/E427R/G434N/G439E/K419E/P331L/P416R/S425G/S440G/V435A/V443G); experiment: Cotransfection CAT reporter assay with GEcR (GR N-terminal domain fused to EcR) and usp in CV1 cells; format: cell-based, Drosophila; conditions: CV1 cells transfected with GEcR alone
T1 construct: expressed in transfected cells; host or cells: CV1 monkey kidney cells
T1 sequence (P04150+P34021 with tags, fused parts or gaps P04150:P416R/P04150:K419E/P04150:S425G/P04150:E427R/P04150:C431Y/P04150:G434N/P04150:V435A/P04150:G439E/P04150:S440G/P04150:V443G/P34021:P331L): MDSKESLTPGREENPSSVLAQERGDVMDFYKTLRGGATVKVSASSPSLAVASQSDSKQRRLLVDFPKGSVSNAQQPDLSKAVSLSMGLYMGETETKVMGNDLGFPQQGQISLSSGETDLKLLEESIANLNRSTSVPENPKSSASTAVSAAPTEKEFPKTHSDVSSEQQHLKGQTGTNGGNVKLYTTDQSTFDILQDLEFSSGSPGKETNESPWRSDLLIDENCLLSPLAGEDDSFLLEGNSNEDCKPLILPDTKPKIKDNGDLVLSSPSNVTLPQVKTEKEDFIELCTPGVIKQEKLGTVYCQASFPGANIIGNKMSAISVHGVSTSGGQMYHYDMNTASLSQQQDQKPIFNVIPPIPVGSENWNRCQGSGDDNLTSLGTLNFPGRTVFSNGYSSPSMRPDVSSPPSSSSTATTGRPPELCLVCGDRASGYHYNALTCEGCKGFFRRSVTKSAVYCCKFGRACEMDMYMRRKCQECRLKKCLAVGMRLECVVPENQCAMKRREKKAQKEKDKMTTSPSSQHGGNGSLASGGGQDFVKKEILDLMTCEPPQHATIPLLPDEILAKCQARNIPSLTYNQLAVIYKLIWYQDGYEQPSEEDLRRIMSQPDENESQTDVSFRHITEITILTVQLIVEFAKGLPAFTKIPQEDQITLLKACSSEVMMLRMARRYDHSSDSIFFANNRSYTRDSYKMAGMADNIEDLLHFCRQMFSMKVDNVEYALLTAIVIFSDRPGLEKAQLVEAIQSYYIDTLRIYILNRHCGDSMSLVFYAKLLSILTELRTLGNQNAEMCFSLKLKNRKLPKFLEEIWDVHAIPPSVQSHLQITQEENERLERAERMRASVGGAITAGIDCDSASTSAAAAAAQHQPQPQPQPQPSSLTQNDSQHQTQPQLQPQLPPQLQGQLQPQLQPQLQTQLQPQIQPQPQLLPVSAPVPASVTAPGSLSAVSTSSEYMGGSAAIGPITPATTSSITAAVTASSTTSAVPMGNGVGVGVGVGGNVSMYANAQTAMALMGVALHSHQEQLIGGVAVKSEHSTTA
Source text: (§1) GEcR was constructed by ligation of a NotI/BamHI fragment containing the DNA and hormone binding domains of a modified EcR cDNA, EcRnx, in place of the DNA and hormone binding domains of the similarly modified glucocorticoid receptor expression construct pRShGRnx [Giguére et al., Nature Vol. 330:624–629 (1987)]. The modified receptor cDNA was constructed using the site-directed mutagenesis procedure of Kunkel, T. A., Proc. Natl. Acad. Sci. USA Vol. 82:[…] (1985) to insert NotI (employing SEQ ID NO:23 as the oligonucleotide template) and XhoI (employing SEQ ID NO:24 as the oligonucleotide template) sites immediately flanking the DNA binding domain. SEQ ID NO:23 is:
(§2) Transfection was performed with calcium-phosphate precipitation method as described previously [Umesono et al., Nature 336:262–264 (1989)]. […] Beta-galactosidase (βGal) activity was measured and a normalized amount of extract was used for CAT assay (Umesono et al. (1989) supra]. The following amount of plasmid DNA was included in the 10 cm plate transfection: 250 ng each of CMX-EcR and RSV-GEcR; 500 ng of CMX-usp; 5 μg ΔMTV-EcRE5-CTA; 5 μg of βGal internal control plasmid CH111 (a derivative of CH110, Promega). The amount of CMX plasmid was kept constant in each transfection by adding CMX-luciferase. PGEM4 was added to bring the total amount of plasmid DNA to 15 μg per plate. […]

[2] = biological target: T2, GEcR/usp (UniProt P04150+P34021, C431Y/E427R/G434N/G439E/K419E/P331L/P416R/S425G/S440G/V435A/V443G); experiment: as above; format: cell-based, Drosophila; conditions: CV1 cells cotransfected with GEcR and usp expression plasmid, EcRE reporter
T2 construct: expressed in transfected cells; host or cells: CV1 monkey kidney cells
T2 sequence (P04150+P34021 with tags, fused parts or gaps P04150:P416R/P04150:K419E/P04150:S425G/P04150:E427R/P04150:C431Y/P04150:G434N/P04150:V435A/P04150:G439E/P04150:S440G/P04150:V443G/P34021:P331L): T1 sequence (P04150+P34021 with tags, fused parts or gaps P04150:P416R/P04150:K419E/P04150:S425G/P04150:E427R/P04150:C431Y/P04150:G434N/P04150:V435A/P04150:G439E/P04150:S440G/P04150:V443G/P34021:P331L)
T2 sequence (P20153 1-508 partner): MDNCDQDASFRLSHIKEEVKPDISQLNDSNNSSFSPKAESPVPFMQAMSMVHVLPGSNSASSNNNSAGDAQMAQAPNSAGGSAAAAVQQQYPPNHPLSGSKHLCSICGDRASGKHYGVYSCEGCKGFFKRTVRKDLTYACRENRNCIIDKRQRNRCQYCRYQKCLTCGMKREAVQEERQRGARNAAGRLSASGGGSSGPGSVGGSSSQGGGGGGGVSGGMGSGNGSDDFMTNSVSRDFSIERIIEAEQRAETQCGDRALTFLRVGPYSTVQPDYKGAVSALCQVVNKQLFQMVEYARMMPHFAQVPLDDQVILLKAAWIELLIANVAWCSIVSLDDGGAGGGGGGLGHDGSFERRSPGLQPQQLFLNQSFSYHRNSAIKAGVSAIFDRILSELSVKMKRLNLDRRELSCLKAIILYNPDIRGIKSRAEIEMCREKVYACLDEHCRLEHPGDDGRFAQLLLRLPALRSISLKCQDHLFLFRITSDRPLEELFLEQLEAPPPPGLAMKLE
Source text: as §1, §2

20-Hydroxyecdysone [20-OH-ecdysone]
ecdysone response (CAT activity) [1]: failed to confer ecdysone response
induction of CAT activity [2]: 8–10 fold
